Laboratory results reported in US11987586B1 (TAKEDA PHARMACEUTICAL COMPANY LIMITED, priority 2022, dated 2024).

biological target: T1, human OX2 receptor (Homo sapiens, UniProt O43614); experiment: Measurement of orexin type 2 receptor agonist activity (calcium fluorescence, Fluo-4, FDSS); format: cell-based; settings: 3 uM test compound; CHO cells expressing human OX2 receptor; DMSO = 0%, 10 nM orexin A (human) = 100%
T1 construct: expressed in transfected cells
T1 sequence (O43614 1-444): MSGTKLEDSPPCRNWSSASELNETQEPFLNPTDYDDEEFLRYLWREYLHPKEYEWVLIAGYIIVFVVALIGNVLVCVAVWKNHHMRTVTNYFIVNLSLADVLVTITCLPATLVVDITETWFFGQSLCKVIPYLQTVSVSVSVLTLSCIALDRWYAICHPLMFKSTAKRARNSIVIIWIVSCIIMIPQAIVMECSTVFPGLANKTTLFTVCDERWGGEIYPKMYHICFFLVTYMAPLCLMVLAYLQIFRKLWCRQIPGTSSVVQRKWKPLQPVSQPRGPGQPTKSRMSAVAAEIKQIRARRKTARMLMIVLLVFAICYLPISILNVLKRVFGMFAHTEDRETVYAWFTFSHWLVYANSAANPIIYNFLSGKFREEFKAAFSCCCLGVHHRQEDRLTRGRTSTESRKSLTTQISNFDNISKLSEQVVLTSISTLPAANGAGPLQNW
Outline: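 CHO-K1 cells stably expressing human OX2 receptor (residues 1-444) were loaded with Fluo-4 AM plus probenecid. Calcium fluorescence after compound addition was recorded for 1 min 40 s. Activity (%) was scaled between DMSO (0%) and 10 nM orexin A final (100%).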

Question: Which “OX2R agonist activity (3 uM, %)” value does the source give for CS(=O)(=O)N[C@@H]1Cn2c(cn(-c3noc4cc(Cl)cc(-c5c(F)cccc5F)c34)c2=O)C1(F)F [Example 73, N-{(6R)-2-[6-chloro-4-(2,6-difluorophenyl)-1,2-benzoxazol-3-yl]-7,7-difluoro-3-oxo-2,5,6,7-tetrahydro-3H-pyrrolo[1,2-c]imidazol-6-yl}methanesulfonamide] here?
Answer: 105%

Question: Which “OX2R agonist activity (3 uM, %)” value does the source give for CS(=O)(=O)N[C@@H]1Cn2c(cn(-c3noc4cc(C(F)(F)F)cc(-c5c(F)cccc5F)c34)c2=O)C1(F)F [Example 74, N-{(6R)-2-[4-(2,6-difluorophenyl)-6-(trifluoromethyl)-1,2-benzoxazol-3-yl]-7,7-difluoro-3-oxo-2,5,6,7-tetrahydro-3H-pyrrolo[1,2-c]imidazol-6-yl}methanesulfonamide] here?
Answer: 104%

Question: For CS(=O)(=O)N[C@@H]1Cn2c(cn(-c3noc4ccc(F)c(-c5c(F)cccc5F)c34)c2=O)C1(F)F [Example 75, N-{(6R)-2-[4-(2,6-Difluorophenyl)-5-fluoro-1,2-benzoxazol-3-yl]-7,7-difluoro-3-oxo-2,5,6,7-tetrahydro-3H-pyrrolo[1,2-c]imidazol-6-yl}methanesulfonamide], which “OX2R agonist activity (3 uM, %)” value is on record?
Answer: 99%

Question: Which “OX2R agonist activity (3 uM, %)” value does the source give for CCS(=O)(=O)N[C@@H]1Cn2c(cn(-c3noc4ccc(F)c(-c5c(F)cccc5F)c34)c2=O)C1(F)F [Example 76, N-{(6R)-2-[4-(2,6-difluorophenyl)-5-fluoro-1,2-benzoxazol-3-yl]-7,7-difluoro-3-oxo-2,5,6,7-tetrahydro-3H-pyrrolo[1,2-c]imidazol-6-yl}ethanesulfonamide] here?
Answer: 105%

Question: How did the “OX2R agonist activity (3 uM, %)” value turn out when CCS(=O)(=O)N[C@@H]1Cn2c(cn(-c3noc4cc(Cl)c(F)c(-c5c(F)cccc5F)c34)c2=O)C1(F)F [Example 78, N-{(6R)-2-[6-chloro-4-(2,6-difluorophenyl)-5-fluoro-1,2-benzoxazol-3-yl]-7,7-difluoro-3-oxo-2,5,6,7-tetrahydro-3H-pyrrolo[1,2-c]imidazol-6-yl}ethanesulfonamide] was run?
Answer: 104%

Question: CCS(=O)(=O)N[C@@H]1CN2C(=O)N(c3noc4cc(Cl)c(F)c(-c5c(F)cccc5F)c34)C[C@@H]2C1(F)F [Example 79, N-{(6R,7aR)-2-[6-chloro-4-(2,6-difluorophenyl)-5-fluoro-1,2-benzoxazol-3-yl]-7,7-difluoro-3-oxohexahydro-1H-pyrrolo[1,2-c]imidazol-6-yl}ethanesulfonamide] was tested. Which “OX2R agonist activity (3 uM, %)” value did it give?
Answer: 99%

Question: With CCS(=O)(=O)N[C@H]1C[C@H]2CN(c3noc4cccc(-c5sccc5C)c34)C(=O)N2C1 [Example 83, N-{(6S,7aS)-2-[4-(3-methylthiophen-2-yl)-1,2-benzoxazol-3-yl]-3-oxohexahydro-1H-pyrrolo[1,2-c]imidazol-6-yl}ethanesulfonamide] as the compound, how does the “OX2R agonist activity (3 uM, %)” value read?
Answer: 84%

Question: For CCS(=O)(=O)N[C@H]1Cc2cn(-c3noc4cc(C(F)(F)F)cc(-c5c(F)cccc5F)c34)c(=O)n2C1 [Example 84, N-{(6S)-2-[4-(2,6-difluorophenyl)-6-(trifluoromethyl)-1,2-benzoxazol-3-yl]-3-oxo-2,5,6,7-tetrahydro-3H-pyrrolo[1,2-c]imidazol-6-yl}ethanesulfonamide], which “OX2R agonist activity (3 uM, %)” value is on record?
Answer: 92%

Question: With CCS(=O)(=O)N[C@H]1Cc2cn(-c3c(C)nn4cccc(-c5c(F)cccc5F)c34)c(=O)n2C1 [Example 85, N-{(6S)-2-[4-(2,6-difluorophenyl)-2-methylpyrazolo[1,5-a]pyridin-3-yl]-3-oxo-2,5,6,7-tetrahydro-3H-pyrrolo[1,2-c]imidazol-6-yl}ethanesulfonamide] as the compound, how does the “OX2R agonist activity (3 uM, %)” value read?
Answer: 95%

Question: For CCS(=O)(=O)N[C@H]1Cc2c(C)n(-c3noc4cc(C(F)(F)F)cc(-c5c(F)cccc5F)c34)c(=O)n2C1 [Example 86, N-{(6S)-2-[4-(2,6-difluorophenyl)-6-(trifluoromethyl)-1,2-benzoxazol-3-yl]-1-methyl-3-oxo-2,5,6,7-tetrahydro-3H-pyrrolo[1,2-c]imidazol-6-yl}ethanesulfonamide], which “OX2R agonist activity (3 uM, %)” value is on record?
Answer: 103%

Question: Which “OX2R agonist activity (3 uM, %)” value does the source give for CS(=O)(=O)N[C@@H]1CN2C(=O)N(c3noc4cc(Cl)cc(-c5c(F)cccc5F)c34)C[C@@H]2C1(F)F [Example 87, N-{(6R,7aR)-2-[6-chloro-4-(2,6-difluorophenyl)-1,2-benzoxazol-3-yl]-7,7-difluoro-3-oxohexahydro-1H-pyrrolo[1,2-c]imidazol-6-yl}methanesulfonamide] here?
Answer: 91%

Question: For Cn1nc2cccc(-c3c(F)cccc3F)c2c1-n1cc2n(c1=O)C[C@@H](NS(C)(=O)=O)C2 [Example 88, N-{(6S)-2-[4-(2,6-difluorophenyl)-2-methyl-2H-indazol-3-yl]-3-oxo-2,5,6,7-tetrahydro-3H-pyrrolo[1,2-c]imidazol-6-yl}methanesulfonamide], which “OX2R agonist activity (3 uM, %)” value is on record?
Answer: 79%

Question: O=C1N(c2noc3cccc(-c4c(F)cccc4F)c23)C[C@H]2N1C[C@@H](NS(=O)(=O)C1CC1)C2(F)F [Example 89, N-{(6R,7aR)-2-[4-(2,6-difluorophenyl)-1,2-benzoxazol-3-yl]-7,7-difluoro-3-oxohexahydro-1H-pyrrolo[1,2-c]imidazol-6-yl}cyclopropanesulfonamide] was tested. Which “OX2R agonist activity (3 uM, %)” value did it give?
Answer: 95%

Question: With CS(=O)(=O)N[C@@H]1Cn2c(cn(-c3noc4cc(Cl)cc(-c5c(F)cc(F)cc5F)c34)c2=O)C1(F)F [Example 90, N-{(6R)-2-[6-chloro-4-(2,4,6-trifluorophenyl)-1,2-benzoxazol-3-yl]-7,7-difluoro-3-oxo-2,5,6,7-tetrahydro-3H-pyrrolo[1,2-c]imidazol-6-yl}methanesulfonamide] as the compound, how does the “OX2R agonist activity (3 uM, %)” value read?
Answer: 107%

Question: How did the “OX2R agonist activity (3 uM, %)” value turn out when CCS(=O)(=O)N[C@@H]1Cn2c(cn(-c3noc4cccc(-c5c(F)cc(F)cc5F)c34)c2=O)C1(F)F [Example 91, N-{(6R)-7,7-difluoro-3-oxo-2-[4-(2,4,6-trifluorophenyl)-1,2-benzoxazol-3-yl]-2,5,6,7-tetrahydro-3H-pyrrolo[1,2-c]imidazol-6-yl}ethanesulfonamide] was run?
Answer: 103%

Question: For CCS(=O)(=O)N[C@@H]1Cn2c(cn(-c3noc4ccc(F)c(-c5c(F)cc(F)cc5F)c34)c2=O)C1(F)F [Example 92, N-{(6R)-7,7-Difluoro-2-[5-fluoro-4-(2,4,6-trifluorophenyl)-1,2-benzoxazol-3-yl]-3-oxo-2,5,6,7-tetrahydro-3H-pyrrolo[1,2-c]imidazol-6-yl}ethanesulfonamide], which “OX2R agonist activity (3 uM, %)” value is on record?
Answer: 98%

Question: How did the “OX2R agonist activity (3 uM, %)” value turn out when CCS(=O)(=O)N[C@@H]1CN2C(=O)N(c3noc4cc(Cl)c(F)c(-c5c(F)cc(F)cc5F)c34)C[C@@H]2C1(F)F [Example 93, N-{(6R,7aR)-2-[6-chloro-5-fluoro-4-(2,4,6-trifluorophenyl)-1,2-benzoxazol-3-yl]-7,7-difluoro-3-oxohexahydro-1H-pyrrolo[1,2-c]imidazol-6-yl}ethanesulfonamide] was run?
Answer: 99%

Question: CCS(=O)(=O)N[C@@H]1Cn2c(cn(-c3noc4cc(Cl)c(F)c(-c5c(F)cc(F)cc5F)c34)c2=O)C1(F)F [Example 94, N-{(6R)-2-[6-chloro-5-fluoro-4-(2,4,6-trifluorophenyl)-1,2-benzoxazol-3-yl]-7,7-difluoro-3-oxo-2,5,6,7-tetrahydro-3H-pyrrolo[1,2-c]imidazol-6-yl}ethanesulfonamide] was tested. Which “OX2R agonist activity (3 uM, %)” value did it give?
Answer: 106%

Question: With CS(=O)(=O)N[C@@H]1Cn2c(cn(-c3noc4cc(Cl)c(F)c(-c5c(F)cccc5F)c34)c2=O)C1(F)F [Example 95, N-{(6R)-2-[6-chloro-4-(2,6-difluorophenyl)-5-fluoro-1,2-benzoxazol-3-yl]-7,7-difluoro-3-oxo-2,5,6,7-tetrahydro-3H-pyrrolo[1,2-c]imidazol-6-yl}methanesulfonamide] as the compound, how does the “OX2R agonist activity (3 uM, %)” value read?
Answer: 104%

Question: How did the “OX2R agonist activity (3 uM, %)” value turn out when CS(=O)(=O)N[C@@H]1Cn2c(cn(-c3noc4cccc(-c5c(F)cccc5F)c34)c2=O)C1(F)F [Example 102, N-{(6R)-2-[4-(2,6-Difluorophenyl)-1,2-benzoxazol-3-yl]-7,7-difluoro-3-oxo-2,5,6,7-tetrahydro-3H-pyrrolo[1,2-c]imidazol-6-yl}methanesulfonamide] was run?
Answer: 100%

Question: For Cn1nc(-n2cc3n(c2=O)C[C@@H](NS(C)(=O)=O)C3)c2c(-c3c(F)cccc3F)cccc21 [Example 103, N-{(6S)-2-[4-(2,6-difluorophenyl)-1-methyl-1H-indazol-3-yl]-3-oxo-2,5,6,7-tetrahydro-3H-pyrrolo[1,2-c]imidazol-6-yl}methanesulfonamide], which “OX2R agonist activity (3 uM, %)” value is on record?
Answer: 106%

Question: CCS(=O)(=O)N[C@@H]1CN2C(=O)N(c3noc4ccc(F)c(-c5c(F)cc(F)cc5F)c34)C[C@@H]2C1(F)F [Example 105, N-{(6R,7aR)-7,7-difluoro-2-[5-fluoro-4-(2,4,6-trifluorophenyl)-1,2-benzoxazol-3-yl]-3-oxohexahydro-1H-pyrrolo[1,2-c]imidazol-6-yl}ethanesulfonamide] was tested. Which “OX2R agonist activity (3 uM, %)” value did it give?
Answer: 96%
